In patent EP4656642A1, “ESTROGEN RECEPTOR PROTEOLYSIS TARGETING CHIMERA COMPOUND AND USE THEREOF” (GAN & LEE PHARM CO., LTD, priority 2023, dated 2024):
Changes are numbered by the printed parent chain. Where two headings read alike, the source gives them in different places.

Key:
Type in all cases: cell-based
AR protein [1] = target: T1, AR protein (Homo sapiens, UniProt P10275, T878A); test: Degradation of AR protein in LNCAP cells (Western blot, 8 h); conditions: LNCaP FGC cells
T1 construct: host or cells: LNCaP FGC
T1 sequence (P10275 1-920 T878A): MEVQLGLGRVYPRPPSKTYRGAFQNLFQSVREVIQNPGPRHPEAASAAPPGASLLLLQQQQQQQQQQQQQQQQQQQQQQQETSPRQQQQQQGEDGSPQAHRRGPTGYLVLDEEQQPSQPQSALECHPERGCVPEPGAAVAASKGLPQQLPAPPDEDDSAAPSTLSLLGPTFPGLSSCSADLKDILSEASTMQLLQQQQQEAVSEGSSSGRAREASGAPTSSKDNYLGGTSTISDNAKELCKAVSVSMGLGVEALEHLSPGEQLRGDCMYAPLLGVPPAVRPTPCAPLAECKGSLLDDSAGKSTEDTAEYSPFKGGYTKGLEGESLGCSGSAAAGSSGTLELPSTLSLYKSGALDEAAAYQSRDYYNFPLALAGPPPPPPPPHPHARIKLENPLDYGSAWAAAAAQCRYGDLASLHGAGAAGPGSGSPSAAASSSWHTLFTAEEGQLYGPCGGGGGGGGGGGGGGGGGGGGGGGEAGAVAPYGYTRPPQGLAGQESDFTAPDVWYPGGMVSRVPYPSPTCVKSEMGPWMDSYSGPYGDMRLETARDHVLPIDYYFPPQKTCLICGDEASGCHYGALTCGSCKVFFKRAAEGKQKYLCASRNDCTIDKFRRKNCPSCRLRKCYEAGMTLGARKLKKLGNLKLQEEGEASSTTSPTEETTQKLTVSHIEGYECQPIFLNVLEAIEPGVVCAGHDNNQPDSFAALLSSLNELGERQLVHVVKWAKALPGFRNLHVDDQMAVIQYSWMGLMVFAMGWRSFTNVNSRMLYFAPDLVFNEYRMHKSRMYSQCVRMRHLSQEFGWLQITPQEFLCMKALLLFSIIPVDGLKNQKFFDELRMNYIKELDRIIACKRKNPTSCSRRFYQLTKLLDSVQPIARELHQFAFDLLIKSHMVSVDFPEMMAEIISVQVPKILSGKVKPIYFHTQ
Method: After 8 h, the culture medium was discarded, and the cells were washed with PBS. After the cells were washed with PBS, RIPA lysis buffer containing 1% Protease Inhibitor Cocktail was added, and the total protein extract was obtained after lysis and centrifugation, and the protein concentration in the extract was detected by BCA method. Protein electrophoresis was carried out by SDS-PAGE, after which the proteins were transferred to PVDF (Millipore Sigma Catalog No. PSRP010R5) membrane by 100V constant voltage electrotransfer for 60 min, and the PVDF membrane was placed in 1×TBST solution with 5% milk and blocked at room temperature for 1h. […] The primary antibody solution was discarded, and the PVDF membrane was washed three times with 1× TBST for 5 min each. […] The secondary antibody solution was discarded, and the PVDF membrane was washed three times with 1× TBST for 5 min each. Western membrane imaging was performed using a dual-color infrared laser imaging system (Licor catalog number Odyssey CLX). Bands were analyzed in grayscale using the software Image Studio. For each sample, GAPDH protein bands were detected as internal reference. The degradation rates of the AR protein for the compounds and positive control sample were calculated based on the grayscale of the protein bands.

LNCAP FGC cells = test: Inhibition of LNCAP cell proliferation (WST-8, 96 hours)
Method: Test Example 8 Inhibitory activity of the compounds disclosed in the present disclosure on LNCAP cell proliferation
LNCAP FGC cells (ATCC, CLR-1740) were cultured in RPMI 1640 (ATCC, 30-2001) complete medium containing 10% fetal bovine serum (Hyclone, SH30406.05). On the first day of the experiment, LNCaP FGC cells were inoculated in 96-well plates at a density of 5,000 cells/well using RPMI 1640 medium containing 10% fetal bovine serum, with 100µL of cell suspension per well, and placed in a cell culture incubator with 5% CO2 at 37°C overnight. […] The compound concentrations were prepared in complete […] medium and serially diluted 5-fold starting from 10 µM, resulting in a total of nine concentration points. Wells receiving 100 µL of RPMI 1640 medium containing 10% FBS only were used as controls. The plates were incubated at 37°C in a 5% CO2 incubator for 96 hours.

VCaP cells = test: Inhibition of proliferation of VCaP cells (WST-8, 168 hours)
Method: Test Example 7 Inhibitory activity of the compounds disclosed in the present disclosure on the proliferation of VCaP cells
VCaP cells (ATCC, CRL-2876) were cultured in DMEM (Gibco, 11995-065) complete medium containing 10% fetal bovine serum (Hyclone, SH30406.05). On the first day of the experiment, VCaP cells were inoculated in 96-well plates at a density of 15,000 cells/well using DMEM medium containing 10% fetal bovine serum, with 100µL of cell suspension per well, and placed in a cell culture incubator with 5% CO2 at 37°C overnight. […] The compound concentrations were prepared in complete DMEM medium and serially diluted 5-fold starting from 10 µM, resulting in a total of nine concentration points. Wells receiving 100 µL of DMEM medium containing 10% FBS only were used as blank controls. The plates were incubated at 37°C in a 5% CO2 incubator for 168 hours.

AR protein [2] = target: T2, AR protein (Homo sapiens, UniProt P10275); conditions: 8 h
T2 construct: host or cells: VCaP
T2 sequence (P10275 1-920): T1 sequence (P10275 1-920 T878A) with A878T
Method: Test Example 9 Degradation activity of the compounds disclosed in the present disclosure against AR protein in VCAP cells (cell source: ATCC)
AR-positive human prostate cancer cells, VCaP, were inoculated in six-well microplates (Thermo Catalog No. 140675) in DMEM (GiBco Catalog No. 11995-065) containing 10% FBS (Hyclone Catalog No. SH30406.05) at a density of 3 × 10^5 cells/well. […] After 8 h, the culture medium was discarded, and cells were washed with PBS, then RIPA lysis buffer containing 1% Protease Inhibitor Cocktail was added, and the total protein extract was obtained after lysis and centrifugation, and the protein concentration in the extract was detected by BCA method. Protein electrophoresis was carried out by SDS-PAGE, after which the protein was transferred to PVDF (Millipore Sigma catalog number PSRP010R5) membrane by 100V constant-voltage electrotransfer for 60 min, and the PVDF membrane was placed in 1×TBST solution with 5% milk and blocked at room temperature for 1 h. The primary antibody solution (Anti-Androgen receptor, Cell Signaling Technology Catalog No. 5153S; 1: 2000 dilution) was prepared and incubated overnight at 4°C. The primary antibody solution was discarded, and the PVDF membrane was washed three times with 1× TBST for 5 min each. The secondary antibody solution (Thermo catalog number SA5-35571; 1:7500 dilution) was prepared, and the secondary antibody dilution was incubated at room temperature for 1h. The secondary antibody solution was discarded, and the PVDF membrane was washed three times with 1×TBST for 5 min each. Western membrane imaging was performed using a dual-color infrared laser imaging system (Licor catalog number Odyssey CLX). Bands were analyzed in grayscale using the software Image Studio. For each sample, GAPDH protein bands were detected as internal reference. The degradation rates of the AR protein for the compounds and positive control sample were calculated based on the grayscale of the protein bands.

[3] = LNCAP FGC cells, 96 hours, WST-8

SMILES | Degradation rates of the AR protein in LNCAP cells, 10 nM (%) (AR protein [1]) | Degradation rates of the AR protein in LNCAP cells, 100 nM (%) (AR protein [1]) | IC50 (LNCAP FGC cells; [3]) [µM] | IC50 (VCaP cells; VCaP cells, 168 hours, WST-8) [µM] | Degradation rates of the AR protein in VCAP cells, 0.5 nM (AR protein [2]) [%] | Degradation rates of the AR protein in VCAP cells, 5 nM (AR protein [2]) [%] | IC50 (LNCAP FGC cells) [µM] | IC50 (VCaP cells) [µM]
COc1cc(O[C@H]2CC[C@H](NC(=O)c3ccc(N4CCC(CN5CCC6(CC5)COc5c6ccc6c5C(=O)N(C5CCC(=O)NC5=O)C6)(OC)CC4)nn3)CC2)ccc1C#N (relative stereo) [2-264] | 52 | 71 | 33.6 | 0.003 | – | – | – | –
N#Cc1ccc(O[C@H]2CC[C@H](NC(=O)c3ccc(N4CCC(CN5CCC6(CC5)COc5c6ccc6c5C(=O)N(C5CCC(=O)NC5=O)C6)CC4)nn3)CC2)cc1Cl (relative stereo) [2-313] | 75 | 79 | 34.3 | – | 78 | 89 | – | –
COc1cc(O[C@H]2CC[C@H](NC(=O)c3ccc(N4CCC(CN5CCC6(CC5)COc5c6ccc6c5C(=O)N(C5CCC(=O)NC5=O)C6)CC4)nn3)CC2)ccc1C#N (relative stereo) [2-314] | 69 | 76 | 42.4 | – | 86 | 91 | – | –
COC1(CN2CCC3(CCc4cc5c(cc4O3)C(=O)N(C3CCC(=O)NC3=O)C5)CC2)CCN(c2ccc(N3CCC4(CC3)C[C@H](C)N(c3ccc(C#N)c(Cl)c3)C4)cc2)CC1 (stereo partly drawn) [2-99] | – | – | – | – | – | – | 2.71 | 0.007
C[C@H]1CC2(CCN(c3ccc(N4CCC(C)(CN5CCC6(CCc7cc8c(cc7O6)C(=O)N(C6CCC(=O)NC6=O)C8)CC5)CC4)cc3)CC2)CN1c1ccc(C#N)c(Cl)c1 (stereo partly drawn) [2-101] | – | – | – | – | – | – | 5.08 | 0.01
